Here are results for eight molecules from patent publication US20080114005A1, “Fibrate Compounds Having Ppar Agonist Activity” (Dr. Reddy's Laboratories Limited, priority 2004, published 2008).

Data set [1] has as its system Swiss albino mice. Description: plasma triglyceride lowering activity in Swiss albino mice. The conditions noted are these: 3.0 mg/kg orally for 6 days. The format is in vivo. As for the experimental part:
The properties of the derivatives of the invention were also evaluated in vivo. The following procedure was used to determine plasma triglyceride and total cholesterol lowering activity in Swiss albino mice.
Male Swiss albino mice (SAM) were obtained from National Institute Nutrition (NIN) and housed in Dr. Reddy's Laboratories Ltd (DRL) animal house. All these animals are maintained under 12 hour light and dark cycle at 25±1° C. Animals were given standard laboratory chow (NIN, Hyderabad, India) and water, ad libitum. SAM of 20-25 grams body weight range were used. See Oliver, P., Plancke, M. O., Marzin, D., Clavey, V., Sauzieres, J and Fruchart, J. C. Effects of fenofibrate, gemfibrozil and nicotinic acid on plasma lipoprotein levels in normal and hyperlipidemic mice, Atherosclerosis. 1988. 70: 107-114, incorporated herein by reference in its entirety. The test compounds can be administered orally to Swiss albino mice at the dose mentioned in table for 6 days. Control mice were treated with vehicle 0.25% Carboxymethylcellulose (CMC; dose 10 ml/kg). The blood samples from the retro-orbital sinus through heparinised capillary in EDTA containing tubes were collected in fed state 1 hour after drug administration on 0 and 6 days of treatment. After centrifugation plasma was separated for triglyceride measurement using commercial kits. See Wieland, O. Methods of Enzymatic analysis. Bergermeyer, H. O., Ed., 1963. 211-214; Trinder, P. Ann. Clin. Biochem. 1969. 6: 24-27, incorporated herein by reference in its entirety. Percent reduction was calculated as per the formula given in Petit, D., Bonnefis, M. T., Rey, C. and Infante, R. Effects of ciprofibrate on liver lipids and lipoprotein synthesis in normo- and hyperlipidemic rats. Atherosclerosis. 1988. 74 : 215-225.

In data set [2] the test system is hypercholesterolemic rat model. Description: plasma triglyceride and cholesterol lowering activity in hypercholesterolemic rat model. Type of data set: in vivo, Sprague Dawley rats. As to conditions: hypercholesterolemic rats, 3.0 mg/kg orally for 3 days; for Reduction (%) LDL: LDL cholesterol calculated by formula; for ↑HDL: increase of plasma HDL (under head Reduction (%)); for Reduction (%) TC: plasma total cholesterol; for Reduction (%) TG: plasma triglyceride. How it is done:
The following procedure was used to determine plasma triglyceride and cholesterol lowering activity in hypercholesterolemic rat model.
Male Sprague Dawley rats (NIN stock) were bred in DRL animal house. Animals were maintained under 12 hour light and dark cycle at 25±1° C. Rats of 180-200 gram body weight range were used for the experiment. Animals are made hypercholesterolemic by feeding 2% cholesterol and 1% sodium cholate mixed with standard laboratory chow [National Institute of Nutrition (NIN), Hyderabad, India] for 6 days. Throughout the experimental period the animals were maintained on the same diet. The test compounds were administered orally at a dose mentioned in table for 3 days. Control group was treated with vehicle alone (0.25% CMC; 10 ml/kg). The blood samples were collected in fed state 1 hour after drug administration on 0 and 3 days of compound treatment. The blood was collected from the retro-orbital sinus through heparinised capillary in EDTA containing tubes. After centrifugation, plasma sample was separated for total cholesterol, HDL and triglyceride estimations. Measurement of plasma triglyceride, total cholesterol and HDL were done using commercial kits. LDL and VLDL cholesterol can be calculated from the data obtained for total cholesterol, HDL and triglyceride.
The percent reductions in blood sugar/triglycerides/total cholesterol were calculated according to the following formula:
OC=Zero day control group value
OT=Zero day treated group value
TC=Test day control group value
T=Test day treated group value.
The levels of LDL and VLDL cholesterol were calculated according to the formula:
VLDL cholesterol in mg/dl=[Total cholesterol-HDL cholesterol-LDL cholesterol] mg/dl.

Data set [3] addresses T1, human PPARα (Homo sapiens, UniProt Q07869).
T1 construct: expressed in transfected cells; host or cells: HEK-293
T1 sequence (Q07869 239-466 limits assumed): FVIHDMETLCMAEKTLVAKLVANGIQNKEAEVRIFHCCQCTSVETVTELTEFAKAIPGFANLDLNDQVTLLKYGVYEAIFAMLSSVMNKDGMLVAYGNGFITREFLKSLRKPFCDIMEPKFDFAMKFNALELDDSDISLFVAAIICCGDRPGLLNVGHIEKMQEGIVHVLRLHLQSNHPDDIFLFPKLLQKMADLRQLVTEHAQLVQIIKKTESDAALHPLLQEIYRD
Description: in vitro PPARα transactivation, GAL4-LBD luciferase reporter in HEK-293 cells. Type of data set: cell-based. As to conditions: luciferase fold activation relative to untreated cells. The source says: A number of derivatives of the invention have shown PPAR agonist activity. The following procedure was used for in vitro determination of PPARα, γ and δ transactivation.
(§1) The ligand binding domain of human PPARγ1, PPARα or PPARδ was fused to the C-terminal end of DNA binding domain of yeast transcription factor GAL4 in eukaryotic expression vector. HEK-293 cells were transfected with either of these plasmids, reporter plasmid pGL2 (Gal4×5)˜SV40˜Luc and pAdVantage using superfect (Qiagen, Germany) for 3 hours. pAdVantage vector was used to enhance the luciferase expression. 48 hours after transfection, the cells were harvested and incubated overnight with or without test compounds at different concentrations. The cells were lysed and luciferase activity was measured using the LucLite kit (Packard USA). Luciferase activity was measured as fold activation relative to untreated cells.
(In general: A reporter such as luciferase makes a cellular process visible.)

In data set [4] the target is T2, human PPARγ1 (Homo sapiens, UniProt P37231).
T2 construct: expressed in transfected cells; host or cells: HEK-293
T2 sequence (P37231 238-503 limits assumed): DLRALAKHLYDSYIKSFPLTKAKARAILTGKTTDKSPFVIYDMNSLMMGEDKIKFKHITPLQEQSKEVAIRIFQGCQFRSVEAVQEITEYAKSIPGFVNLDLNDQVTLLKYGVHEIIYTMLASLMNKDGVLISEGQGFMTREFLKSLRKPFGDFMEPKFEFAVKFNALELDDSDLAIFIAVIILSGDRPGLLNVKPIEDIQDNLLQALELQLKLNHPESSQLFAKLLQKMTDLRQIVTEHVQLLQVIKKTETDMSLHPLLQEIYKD
Nature of the data set: in vitro PPARγ transactivation, GAL4-LBD luciferase reporter in HEK-293 cells. Type of data set: cell-based. As to conditions: luciferase fold activation relative to untreated cells. How it is done: (§2) The following procedure was used for in vitro determination of PPARα, γ and δ transactivation.
as §1

In data set [5] the target is T3, human PPARδ (Homo sapiens, UniProt Q03181).
T3 construct: expressed in transfected cells; host or cells: HEK-293
T3 sequence (Q03181 211-439 limits assumed): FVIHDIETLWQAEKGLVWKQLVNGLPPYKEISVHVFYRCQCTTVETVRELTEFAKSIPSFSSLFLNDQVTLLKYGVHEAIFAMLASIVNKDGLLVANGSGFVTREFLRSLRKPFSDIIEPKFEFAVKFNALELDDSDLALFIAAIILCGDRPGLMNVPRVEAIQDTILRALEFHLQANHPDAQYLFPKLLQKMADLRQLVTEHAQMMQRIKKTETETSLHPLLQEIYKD
Nature of the data set: in vitro PPARδ transactivation, GAL4-LBD luciferase reporter in HEK-293 cells. As to conditions: luciferase fold activation relative to untreated cells. The format is cell-based. How it is done:
as §2, §1

Structures can show the parent of a compound that is named as a salt.

As to `CCCc1nn(C)c2c(=O)n(CCOc3cccc(O[C@](C)(CC)C(=O)O)c3)c(C)nc12` [Example 100, R-(+)-2-{3-[2-(1,5-Dimethyl-7-oxo-3-propyl-1,7-dihydro-pyrazolo[4,3-d]pyrimidin-6-yl)-ethoxy]-phenoxy}-2-methyl-butyric acid], the melting point (commonly the temperature of the solid-liquid transition) was in the range of 118 to 120 °C. Besides, the “% reduction in TG” value in data set [1] stood at 76%. In addition, in data set [2], the “Reduction (%) LDL” value is given as 76%, the “↑HDL” value was determined as 145%, the “Reduction (%) TC” value came to 70% and the “Reduction (%) TG” value stood at 60%.

The molecule `CCCc1nn(C)c2c(=O)n(CCOc3cccc(OC(C)(CC)C(=O)O)c3)c(C)nc12` (stereo not drawn) [Example 98, 2-{3-[2-(1,5-Dimethyl-7-oxo-3-propyl-1,7-dihydro-pyrazolo[4,3-d]pyrimidin-6-yl)-ethoxy]-phenoxy}-2-methyl-butyric acid] gave a melting point of 130 to 132 °C. Besides, the PPARα activation in data set [3] (test compound at 1 μM) amounted to 5.0. Also, the PPARα activation in data set [3] (test compound at 10 μM) is reported as 5.7. The “% reduction in TG” value in data set [1] is recorded as 65%. The PPARγ activation in data set [4] (test compound at 1 μM) is listed as 1.1(87.3). For the same molecule, in data set [4] (test compound at 10 μM), the PPARγ activation is 0.3(85.3). Further, in data set [2], the “Reduction (%) LDL” value is on record as 75%, the “↑HDL” value is given as 267%, the “Reduction (%) TC” value was determined as 67% and the “Reduction (%) TG” value came to 81%. The molecule also returned a PPARδ activation in data set [5] (test compound at 1 μM) of 0.6. Moreover, in data set [5] (test compound at 10 μM), the PPARδ activation is listed as 3.3.

The molecule `CCCc1nn(C)c2c(=O)n(CCOc3cc(O[C@](C)(CC)C(=O)O)ccc3Cl)c(C)nc12` [Example 102, R-(+)-2-{4-Chloro-3-[2-(1,5-dimethyl-7-oxo-3-propyl-1,7-dihydro-pyrazolo[4,3-d]pyrimidin-6-yl)-ethoxy]-phenoxy}-2-methyl-butyric acid] had a melting point of 98 to 100 °C. The molecule further gave a PPARα activation in data set [3] (test compound at 1 μM) of 3.9. Moreover, the PPARα activation in data set [3] (test compound at 10 μM) was determined as 5.2. For the same molecule, the “% reduction in TG” value in data set [1] was 67%. Moreover, in data set [2], the “Reduction (%) LDL” value was 55%, the “↑HDL” value came to 45%, the “Reduction (%) TC” value is recorded as 51% and the “Reduction (%) TG” value stood at 51%. This molecule also registered a PPARδ activation in data set [5] (test compound at 1 μM) of 1.7. The molecule further came in with a PPARδ activation in data set [5] (test compound at 10 μM) of 1.3.

`CCCc1nn(C)c2c(=O)n(CCOc3cccc(O[C@@](C)(CC)C(=O)O)c3)c(C)nc12` [Example 104, S-(−)-2-{3-[2-(1,5-Dimethyl-7-oxo-3-propyl-1,7-dihydro-pyrazolo[4,3-d]pyrimidin-6-yl)-ethoxy]-phenoxy}-2-methyl-butyric acid] yielded a melting point of 119 to 120 °C. Besides, the “% reduction in TG” value in data set [1] is 70%. In data set [2], the “Reduction (%) LDL” value is reported as 77%, the “↑HDL” value worked out at 158%, the “Reduction (%) TC” value is 71% and the “Reduction (%) TG” value is on record as 72%.

In turn, `CCCc1nn(C)c2c(=O)n(CCCc3cccc(OC(C)(C)C(=O)O)c3)c(C)nc12.N=C(N)NCCC[C@H](N)C(=O)O` [Example 82, Argenine salt of 2-{3-[3-(1,5-dimethyl-7-oxo-3-propyl-1,7-dihydro-pyrazolo[4,3-d]pyrimidin-6-yl)-propyl]-phenoxy}-2-methyl-propionic acid] gave a PPARα activation in data set [3] (test compound at 1 μM) of 7.1. The same molecule returned a PPARα activation in data set [3] (test compound at 10 μM) of 8.4. Besides, the “% reduction in TG” value in data set [1] stood at 81%. Further, in data set [2], the “Reduction (%) LDL” value is reported as 72%, the “↑HDL” value came out at 48%, the “Reduction (%) TC” value amounted to 68% and the “Reduction (%) TG” value is reported as 69%. The molecule also gave a PPARδ activation in data set [5] (test compound at 1 μM) of 0. For the same molecule, the PPARδ activation in data set [5] (test compound at 10 μM) is reported as 0.

Turning to `CCCc1nn(C)c2c(=O)n(CCCc3ccc(OC(C)(CC)C(=O)O)cc3)c(C)nc12` (stereo not drawn) [Example 96, Magnesium salt of 2-{4-[3-(1,5-dimethyl-7-oxo-3-propyl-1,7-dihydro-pyrazolo[4,3-d]pyrimidin-6-yl)-propyl]-phenoxy}-2-methyl-butyric acid], the “% reduction in TG” value in data set [1] (3 mg/kg) is on record as 60%. Also, in data set [2] (3 mg/kg), the “Reduction (%) LDL” value was 67%, the “↑HDL” value is listed as 162%, the “Reduction (%) TC” value was 63% and the “Reduction (%) TG” value is 76%.

On to `CCCc1nn(C)c2c(=O)n(CCCc3ccc(OC(C)(C)C(=O)O)cc3)c(C)nc12.N=C(N)NCCC[C@H](N)C(=O)O` [Example 79, Argenine salt of 2-{4-[3-(1,5-dimethyl-7-oxo-3-propyl-1,7-dihydro-pyrazolo[4,3-d]pyrimidin-6-yl)-propyl]-phenoxy}-2-methyl-propionic acid], for which, in data set [1], the “% reduction in TG” value came out at 55%.

In the case of `CCCc1nn(C)c2c(=O)n(CCCc3ccc(OC(C)(CC)C(=O)O)cc3)c(C)nc12` (stereo not drawn) [Example 95, 2-{4-[3-(1,5-Dimethyl-7-oxo-3-propyl-1,7-dihydro-pyrazolo[4,3-d]pyrimidin-6-yl)-propyl]-phenoxy}-2-methyl-butyric acid], the figures for the PPARα activation in data set [3] (test compound at 1 μM) and in data set [3] (test compound at 10 μM) were 6.4 and 7.3, respectively. In addition, the “% reduction in TG” value in data set [1] (3 mg/kg) is reported as 63%. Moreover, the PPARγ activation was 17.3(85.5) in data set [4] (test compound at 1 μM) and 36.6(110.3) in data set [4] (test compound at 10 μM). Besides, the “Reduction (%) LDL” value in data set [2] (3 mg/kg) is recorded as 69%. Moreover, the “↑HDL” value in data set [2] (3 mg/kg) turned out to be 212%. Moreover, in data set [2] (3 mg/kg), the “Reduction (%) TC” value was found to be 64%. Besides, in data set [2] (3 mg/kg), the “Reduction (%) TG” value worked out at 67%. The PPARδ activation in data set [5] (test compound at 1 μM) is on record as 0.1; in data set [5] (test compound at 10 μM), 4.0.
